Results taken from PubChem BioAssay (NCI).
Where “and” joins values, the source holds several entries; their conditions need not be identical. Identical values can stand only once.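 Each compound was tested at five concentrations against cells in 96-well plates for 48 hours. At the GI50, growth is halved. The concentration for full growth arrest is given as TGI.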

What was measured:
Assay in all cases: growth of human tumour cells (NCI), 48 h
NCI-H522 lung = tested on: NCI-H522 lung
SK-MEL-2 melanoma = tested on: SK-MEL-2 melanoma
COLO 205 colon = tested on: COLO 205 colon
SNB-75 CNS = tested on: SNB-75 CNS
SN12C renal = tested on: SN12C renal
SF-295 CNS = tested on: SF-295 CNS
NCI-H460 lung = tested on: NCI-H460 lung
M14 melanoma = tested on: M14 melanoma
SW-620 colon = tested on: SW-620 colon
EKVX NSCLC = tested on: EKVX NSCLC

Row | Structure (SMILES) | GI50 (NCI-H522 lung) | TGI (NCI-H522 lung) | GI50 (SK-MEL-2 melanoma) | TGI (SK-MEL-2 melanoma) | GI50 (COLO 205 colon) | TGI (COLO 205 colon) | GI50 (SNB-75 CNS) | TGI (SNB-75 CNS) | GI50 (SN12C renal) | TGI (SN12C renal) | GI50 (SF-295 CNS) | TGI (SF-295 CNS) | GI50 (NCI-H460 lung) | TGI (NCI-H460 lung) | GI50 (M14 melanoma) | TGI (M14 melanoma) | GI50 (SW-620 colon) | TGI (SW-620 colon) | GI50 (EKVX NSCLC) | TGI (EKVX NSCLC)
1 | Cc1ccc(Nc2[nH]c(C(=O)c3ccc(Cl)cc3)c(N)c2C(=S)Nc2ccccc2)nc1 | 24 µM | 73.2 µM | 28.1 µM | > 100 µM | 31.9 µM | > 100 µM | 79.3 µM | > 100 µM | 18.5 µM | 37.9 µM | 21.5 µM | 67.3 µM | 23.9 µM | > 100 µM | 77.8 µM | > 100 µM | 32.7 µM | > 100 µM | 35.5 µM | > 100 µM
2 | CCC(C(=O)c1cccs1)C(O)(C(F)(F)F)C(F)(F)F (stereo not drawn) |  | > 100 µM |  | > 100 µM |  | > 100 µM |  | > 100 µM |  | > 100 µM |  | > 100 µM |  | > 100 µM |  | > 100 µM |  | > 100 µM |  | > 100 µM
3 | COc1ccc2[nH]c3c(C)c4cc[n+](C)cc4c(C)c3c2c1 | 0.167 µM and 0.0825 µM |  | 4.87 µM | 13.8 µM [middle of 4 runs] |  | 7.97 µM and 4.89 µM and 3.58 µM | 0.158 µM and 0.324 µM | 801 nM [middle of 4 runs] | 0.0483 µM and 0.0691 µM | 797 nM [middle of 4 runs] | 0.107 µM |  | 0.402 µM and 0.998 µM |  | 16.1 µM and 12.9 µM and 2.33 µM | 85.3 µM and 29.8 µM | 0.28 µM |  | 0.63 µM | 
4 | COc1cccc2c1nc1cccc(OC)c1[n+]2[O-] | 3.98 µM | 18.1 µM | 5.44 µM | 18.4 µM | 10.9 µM | 26.7 µM | 2.49 µM | 14.5 µM | 4.15 µM | 16.3 µM | 2.11 µM | 7.96 µM | 2.76 µM | 10.7 µM | 3.47 µM | 16.2 µM | 3 µM | 15.9 µM | 13.7 µM | 30.9 µM
5 | CCc1nc(-n2c(CC)nc3ccccc3c2=O)nc(N)c1-c1ccc(Cl)cc1 | > 100 µM | > 100 µM | > 100 µM | > 100 µM | 19.3 µM | > 79.3 µM | > 100 µM | > 100 µM | > 46.1 µM | > 100 µM | 12.6 µM | > 100 µM | 14 µM | > 100 µM | 52.6 µM | > 100 µM | 5.42 µM | > 100 µM | 99 µM | > 100 µM
6 | CCN1CCC2(CC1)NC(=O)c1c(c3ccc(Cl)c(Cl)c3n1C)C2C#N (stereo not drawn) | 5.81 µM | 21.7 µM | 2.02 µM | 4.42 µM | 1.86 µM | 4.11 µM | 1.75 µM | 4.64 µM | 4.1 µM | 16.3 µM | 1.79 µM | 4.35 µM | 2.34 µM | 6.45 µM | 1.62 µM | 3.1 µM | 1.94 µM | 3.77 µM | 3.4 µM | 17.8 µM
7 | O=C(N[C@@H]1C=CCC[C@@H]1c1ccccc1)OCc1ccccc1 |  | 30.9 µM |  | 32.4 µM |  | 33.1 µM |  | 60.6 µM |  | 31.1 µM |  | 45.6 µM |  | 34.7 µM |  | 34.5 µM |  | 50.7 µM |  | 72.5 µM
8 | CCOC(=O)C1(Br)C(c2ccccc2)NC(=O)N(C2OC(COC(=O)c3ccccc3)C(OC(=O)c3ccccc3)C2OC(=O)c2ccccc2)C1(C)Br (stereo not drawn) |  | 20.3 µM |  | > 100 µM |  | > 65.7 µM |  | > 90.7 µM |  | > 100 µM |  | > 100 µM |  | > 100 µM |  | > 63.6 µM |  | 22.4 µM |  | > 94.5 µM
9 | CCOC(=O)C12CCSC1C1(C#N)C(C#N)=CC2(N=P(c2ccccc2)(c2ccccc2)c2ccccc2)n2c(=O)n(-c3ccccc3)c(=O)n21 (stereo not drawn) |  | 87.2 µM |  | > 100 µM |  | > 100 µM |  | > 100 µM |  | > 100 µM |  | > 100 µM |  | > 100 µM |  | > 100 µM |  | > 100 µM |  | > 100 µM
10 | C=CC1(c2ccccc2Cl)N/C(=C/OCC)CO1 (stereo not drawn) |  | > 100 µM |  | > 100 µM |  | > 100 µM |  | > 100 µM |  | > 100 µM |  | > 100 µM |  | > 100 µM |  | > 100 µM |  | 28.4 µM |  | > 100 µM
11 | Cc1cc2c(=O)cc(-c3ccc(C(F)(F)F)cc3)oc2c(C(=O)O)c1C |  | > 100 µM |  | > 100 µM |  | > 100 µM |  | > 100 µM |  | > 100 µM |  | > 100 µM |  | > 100 µM |  | > 100 µM |  | > 100 µM |  | > 100 µM
12 | CN1C(=O)N(C)C2C1NN=c1s/c(=C\c3c[nH]c4ccccc34)c(=O)n12 (stereo not drawn) | 0.0331 µM | 18.9 µM | 34.6 µM | > 100 µM | 0.0363 µM | 0.564 µM | < 0.0158 µM |  | 0.0714 µM | > 100 µM | 0.0304 µM | 33.6 µM | 0.0397 µM | > 100 µM | 0.0294 µM | > 100 µM | 0.0442 µM | > 100 µM | 0.0577 µM | > 100 µM
13 | COc1ccc(N2CCN(CN3CCN(c4ccc(OC)cc4)C3)C2)cc1 | > 100 µM | > 100 µM | > 100 µM | > 100 µM | > 100 µM | > 100 µM | > 100 µM | > 100 µM | > 100 µM | > 100 µM | > 100 µM | > 100 µM | > 100 µM | > 100 µM | > 100 µM | > 100 µM | 28.2 µM | > 100 µM | > 100 µM | > 100 µM
14 | c1ccc(CCCNc2nnnc3ccccc23)cc1 |  | > 100 µM |  | > 100 µM |  | > 100 µM |  | > 100 µM |  | > 100 µM |  | > 100 µM |  | > 100 µM |  | > 100 µM |  | > 100 µM |  | > 100 µM
15 | CSC1=Nc2c(c(C)c(-c3ccccc3)n2CCCCl)C2=NC(=O)CN12 | 3.86 µM | 19.2 µM | 10.4 µM | 27.6 µM | 4.13 µM | 15.2 µM | 2.83 µM | 11.6 µM | 6.28 µM | 39 µM | 4.11 µM | 26.8 µM | 3.7 µM | 15 µM | 3.32 µM | 15.2 µM | 4.79 µM | 53.5 µM | 6.89 µM | 31 µM
16 | NC1=NN(c2ccccc2)C(=O)C1/C(=N\NC(=O)c1cc2ccccc2cc1O)C(=O)Nc1nc([N+](=O)[O-])cs1 (stereo not drawn) |  | 37.2 µM |  | > 86.6 µM |  | 54.8 µM |  | > 100 µM |  | > 100 µM |  | > 100 µM |  | 46.1 µM |  | > 95.5 µM |  | > 82.3 µM |  | > 100 µM
17 | Nc1ccc(-c2ccc(Nc3cc(S(=O)(=O)O)c(N)c4c3C(=O)c3ccccc3C4=O)cc2)c(S(=O)(=O)O)c1 |  | > 100 µM |  | > 100 µM |  | > 100 µM |  | > 100 µM |  | > 100 µM |  | > 100 µM |  | > 100 µM |  | > 100 µM |  | > 100 µM |  | > 100 µM
18 | COc1cc(/C=C2\CCCC3C2=Nc2ccccc2NC3c2cc(OC)c(OC)c(OC)c2)cc(OC)c1OC (stereo not drawn) | 1.9 µM | 4.92 µM | 3.1 µM | 8.33 µM | 2.59 µM | 6.29 µM | 21.9 µM | > 100 µM | 2.1 µM | 14 µM | 3.65 µM | > 100 µM | 0.643 µM | 2.42 µM | 1.27 µM | 4.23 µM | 1.6 µM | 6.77 µM | 7.45 µM | > 100 µM
19 | O=C1NC2(CCCC2)/C(=N\O)C12CCCC2 |  | > 100 µM |  | > 100 µM |  | > 100 µM |  | > 100 µM |  | > 100 µM |  | > 100 µM |  | > 100 µM |  | > 100 µM |  | > 100 µM |  | > 100 µM
